Reference: patent US11654136B2, “Phosphoinositide 3-kinase inhibitor with a zinc binding moiety” (Curis, Inc., priority 2011, dated 2023)
“Also recorded” adds a separate entry of the source. Where two headings read alike, the source gives them in different places.

Legend:
[1] = Pharmacokinetic study in rats; assay type: in vivo; settings: rat, single oral gavage 20 mg/kg, male Sprague-Dawley rats, plasma
Protocol: The resulting clear yellow solution was stored at room temperature until picked up for dosing.
Three male Sprague-Dawley rats from Charles River Laboratories were used in this study. High fat diet (VHFD, D12492i) from Research Diets Inc. were provided ad libitum throughout the in-life portion of the study.
Blood samples (approximate volume 150 μL) were collected tail vein at 0.25, 0.5, 1, 3, 6, and 24 hours postdose. Blood samples were placed into tubes containing sodium heparin and centrifuged at 8000 rpm for 6 minutes at 4° C. to separate plasma from the samples. Following centrifugation, the resulting plasma was transferred to clean tubes and stored frozen at −80° C. pending bioanalysis.
The pharmacokinetic parameters were determined from mean concentration-time data in the test subjects. A compartmental modeling of WINNONILIN® Professional 5.2. was used to calculate parameters. Any concentrations that were below the limit of quantitation (lower limit of quantitation=1 ng/mL) were omitted from the calculation of parameters in individual animals.

[2] = test system: Daudi human Burkitt's lymphoma xenograft; assay: Comparison with CAL-101 in the Daudi xenograft tumor model; assay type: in vivo, SCID beige mice; settings: 100 mg/kg Qd (Mon-Fri), PO; 18 days
Protocol: Female SCID beige mice (CD-1 Beige SCID) at 6-8 weeks of age were housed in ventilated micro-isolator cages in a controlled climate, fed with sterile high-fat diet (Problab-RMH 2000 ad libitum and provided with sterilized water. All housing and supplies for SCID beige mice are disposable, and purchased irradiated from Innovive prior to use. Mice were inspected daily including weekends/holidays by trained animal facility personnel and investigators. All animal procedures were performed under sterile conditions in a biosafety cabinet (for injections) or laminar flow hood (for animal husbandry and non-invasive procedures).
Daudi human Burkitt's lymphoma cells were originally obtained from a human Burkitt's lymphoma patient. […] The implanted mice were monitored for general health and tumor development daily.
Tumors were detectable about two weeks following implantation. Tumor size was measured with a caliper. […]
During each animal study, tumors were measured with calipers, tumor size determined using the above mentioned formula, and tumor size changes in percentage calculated. Mouse body weights were measured with a scale twice per week. […] T/C values were calculated using the following formula: % T/C=100×ΔT/ΔC if ΔT>0. […]
Tumor sizes and body weights were measured again on the last day of the study.

[3] = test system: Salmonella typhimurium TA100
Protocol: The tester strains used in the mutagenicity assay were Salmonella typhimurium tester strains TA98 (for detecting frame-shift reverse mutation) and TA100 (for detecting point reverse mutation). The assay was conducted in both the presence and absence of S9 mixture along with concurrent vehicle (DMSO, 20 μl/well) and positive controls in duplicate using 6-well plates. […] A reproducible two-fold increase (>2× of vehicle control) of revertant colonies over the daily average control value is considered a positive response of gene mutation for each strain.
2-nitrofluorene and sodium azide served as the positive controls in the absence of S9 for TA98 and TA100 respectively. 2-Aminoanthracene served as the positive controls in the presence of S9 for TA98 and TA100.

COc1ccc(-c2nc(N3CCOCC3)c3sc(CN(C)c4ncc(C(=O)NO)cn4)cc3n2)cn1 [Compound 1, N-hydroxy-2-(((2-(6-methoxypyridin-3-yl)-4-morpholinothieno[3,2-d]pyrimidin-6-yl)methyl)(methyl)amino)pyrimidine-5-carboxamide]
AUC(0-inf) [1]: 164 ng·h/mL | Cmax [1]: 39.5 ng/mL | Tmax [1]: 6 min | Half-life ([1]; read-out: half-life (T1/2) (converted)): 11.7 h | Tumor growth [2]: significantly reduced tumor growth compared to the CAL-101 and control groups | Background Lawn TA100 ([3]; +S9, 62.5 μg/well): 4/4 | Revertants per well TA100, Mean ([3]; +S9, 62.5 μg/well): 32 | Revertants per well TA100, well 1 ([3]; +S9, 62.5 μg/well): 34 | Revertants per well TA100, well 2 ([3]; +S9, 62.5 μg/well): 30 | Background Lawn TA100 ([3]; +S9, 125 μg/well): 4/4 | Revertants per well TA100, Mean ([3]; +S9, 125 μg/well): 29 | Revertants per well TA100, well 1 ([3]; +S9, 125 μg/well): 28 | Revertants per well TA100, well 2 ([3]; +S9, 125 μg/well): 30 | Background Lawn TA100 ([3]; +S9, 250 μg/well): 4/4 | Revertants per well TA100, Mean ([3]; +S9, 250 μg/well): 29 | Revertants per well TA100, well 1 ([3]; +S9, 250 μg/well): 30 | Revertants per well TA100, well 2 ([3]; +S9, 250 μg/well): 28 | Background Lawn TA100 ([3]; +S9, 500 μg/well): 3,sp/3,sp | Revertants per well TA100, Mean ([3]; +S9, 500 μg/well): 35 | Revertants per well TA100, well 1 ([3]; +S9, 500 μg/well): 32 | Revertants per well TA100, well 2 ([3]; +S9, 500 μg/well): 37 | Background Lawn TA100 ([3]; +S9, 1000 μg/well): 3,mp/3,mp | Revertants per well TA100, Mean ([3]; +S9, 1000 μg/well): 34 | Revertants per well TA100, well 1 ([3]; +S9, 1000 μg/well): 33 | Revertants per well TA100, well 2 ([3]; +S9, 1000 μg/well): 34 | Mutagenic response TA100 ([3]; presence and absence of S9, up to 1000 μg/well): no evidence of a significant increase in the mean number of revertant colonies; also recorded: did not induce a positive mutagenic response | Background Lawn TA100 ([3]; −S9, 62.5 μg/well): 4/4 | Revertants per well TA100, Mean ([3]; −S9, 62.5 μg/well): 32 | Revertants per well TA100, well 1 ([3]; −S9, 62.5 μg/well): 34 | Revertants per well TA100, well 2 ([3]; −S9, 62.5 μg/well): 30 | Background Lawn TA100 ([3]; −S9, 125 μg/well): 4/4 | Revertants per well TA100, Mean ([3]; −S9, 125 μg/well): 33 | Revertants per well TA100, well 1 ([3]; −S9, 125 μg/well): 32 | Revertants per well TA100, well 2 ([3]; −S9, 125 μg/well): 34 | Background Lawn TA100 ([3]; −S9, 250 μg/well): 4,sp/4,sp | Revertants per well TA100, Mean ([3]; −S9, 250 μg/well): 32 | Revertants per well TA100, well 1 ([3]; −S9, 250 μg/well): 34 | Revertants per well TA100, well 2 ([3]; −S9, 250 μg/well): 29 | Background Lawn TA100 ([3]; −S9, 500 μg/well): 3,sp/3,sp | Revertants per well TA100, Mean ([3]; −S9, 500 μg/well): 32 | Revertants per well TA100, well 1 ([3]; −S9, 500 μg/well): 33 | Revertants per well TA100, well 2 ([3]; −S9, 500 μg/well): 31 | Background Lawn TA100 ([3]; −S9, 1000 μg/well): 3,mp/3,mp | Revertants per well TA100, Mean ([3]; −S9, 1000 μg/well): 27 | Revertants per well TA100, well 1 ([3]; −S9, 1000 μg/well): 28 | Revertants per well TA100, well 2 ([3]; −S9, 1000 μg/well): 26
